Counter-ions that a name gives are not always drawn.
Biological target: T1, recombinant sEH (Homo sapiens, UniProt P34913)
T1 construct: made in house; host or cells: Sf9 insect cells
T1 sequence (P34913 1-555): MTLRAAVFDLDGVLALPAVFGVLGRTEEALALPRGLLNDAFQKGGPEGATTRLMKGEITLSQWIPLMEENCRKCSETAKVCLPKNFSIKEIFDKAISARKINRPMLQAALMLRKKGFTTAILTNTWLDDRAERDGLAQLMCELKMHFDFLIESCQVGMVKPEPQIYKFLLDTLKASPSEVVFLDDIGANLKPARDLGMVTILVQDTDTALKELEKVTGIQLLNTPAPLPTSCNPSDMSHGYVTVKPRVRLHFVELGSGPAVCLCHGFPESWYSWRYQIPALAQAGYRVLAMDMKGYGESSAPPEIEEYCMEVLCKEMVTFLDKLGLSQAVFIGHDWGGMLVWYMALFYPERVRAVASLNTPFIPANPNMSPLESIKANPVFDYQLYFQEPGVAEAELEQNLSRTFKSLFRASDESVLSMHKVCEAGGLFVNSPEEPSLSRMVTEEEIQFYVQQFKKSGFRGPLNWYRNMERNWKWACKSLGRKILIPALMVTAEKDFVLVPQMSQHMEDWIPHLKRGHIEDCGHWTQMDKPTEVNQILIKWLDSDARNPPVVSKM
Assay: biochemical screening assay for inhibition of soluble epoxide hydrolase (fluorometric, Phome substrate)
Summary of the method: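 Human sEH from Sf9 cells (2 nM final) was pre-incubated 15 min at 30 °C with compound (0.0001–10 μM), then reacted 60 min at 30 °C with 5 μM Phome in 25 mM Hepes/0.01% albumin. Fluorescence of released 6-methoxy-2-naphthaldehyde was read before substrate and at end; IC50 from % inhibition.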

SMILES | IC50
CN1CCN(C(=O)c2ccc(O[C@H]3CO[C@H]4[C@@H]3OC[C@@H]4NC(=O)NC3CCCCC3)cc2)CC1 [Example 119, 1-Cyclohexyl-3-{(3S,3aR,6S,6aS)-6-[4-(4-methyl-piperazine-1-carbonyl)-phenoxy]-hexahydro-furo[3,2-b]furan-3-yl}-urea; trifluoroacetate] | 21 nM
O=C(NCc1ccc(F)cc1)NC1COC2C(CCc3ccsc3)COC12 [Example 364, 1-(4-Fluoro-benzyl)-3-[(3S,3aR,6R)-6-((S)-2-thiophen-3-yl-ethyl)-hexa-hydro-furo[3,2-b]furan-3-yl]-urea] | 29 nM
Cc1ncccc1O[C@H]1CO[C@H]2[C@@H]1OC[C@@H]2NC(=O)NC(C)(C)c1ccncc1 [Example 250, 1-(1-Methyl-1-pyridin-4-yl-ethyl)-3-[(3S,3aR,6S,6aS)-6-(2-methyl-pyridin-3-yloxy)-hexahydro-furo[3,2-b]furan-3-yl]-urea] | 3120 nM
Cc1ncccc1O[C@H]1CO[C@H]2[C@@H]1OC[C@@H]2NC(=O)NC1CCN(C)C1=O (stereo partly drawn) [Example 252, 1-(1-Methyl-2-oxo-pyrrolidin-3-yl)-3-[(3S,3aR,6S,6aS)-6-(2-methyl-pyridin-3-yloxy)-hexahydro-furo[3,2-b]furan-3-yl]-urea] | 3520 nM
Cc1ncccc1O[C@H]1CO[C@H]2[C@@H]1OC[C@@H]2NC(=O)NC1CCOC(C)C1 (stereo partly drawn) [Example 91, 1-[(3S,3aR,6S,6aS)-6-(2-methyl-pyridin-3-yloxy)-hexahydro-furo[3,2-b]furan-3-yl]-3-(2-methyl-tetrahydro-pyran-4-yl)-urea] | 22 nM

Further lines, results first:

IC50 | SMILES
220 nM | O=C(NC1CCCCC1)N[C@H]1CO[C@H]2[C@@H]1OC[C@@H]2Oc1ccccc1CNCC1CCCO1 (stereo partly drawn) [Example 136, 1-Cyclohexyl-3-[(3S,3aR,6S,6aS)-6-(2-{[(tetrahydro-furan-2-ylmethyl)-ao]-methyl}-phenoxy)-hexahydro-furo[3,2-b]furan-3-yl]-urea; trifluoroacetate]
1 nM | Cc1ncccc1O[C@H]1CO[C@H]2[C@@H]1OC[C@@H]2NC(=O)N[C@H]1C[C@@H]2CC[C@H]1C2 [Example 181, 1-(1S,2S,4R)-Bicyclo[2.2.1]hept-2-yl-3-[(3S,3aR,6S,6aS)-6-(2-methyl-pyridin-3-yloxy)-hexahydro-furo[3,2-b]furan-3-yl]-urea]
75 nM | O=C(NC1CCCCC1)N[C@H]1CO[C@H]2[C@@H]1OC[C@@H]2C#Cc1ccc2c(c1)OCO2 [Example 281, 1-((3S,3aR,6S,6aR)-6-benzo[1,3]dioxol-5-ylethynyl-hexahydro-furo[3,2-b]furan-3-yl)-3-cyclohexyl-urea]
7 nM | O=C(NC1CCCCC1)N[C@H]1CO[C@H]2[C@@H]1OC[C@@H]2Oc1ccc(-c2ccccc2)cc1 [Example 105, 1-[(3S,3aR,6S,6aS)-6-(Biphenyl-4-yloxy)-hexahydro-furo[3,2-b]furan-3-yl]-3-cyclohexyl-urea]

From patent US9540391B2, “Isomannide derivatives as inhibitors of soluble epoxide hydrolase” (SANOFI, priority 2013, dated 2017)
